The values below come from patent US20060189535A1, “Combination treatment using exendins and thiazolidinediones” (priority 2002, published 2006).

For assay [1], the system named is dogs. The conditions noted are these: injected into dogs; cited from earlier work.
For assay [2], the system named is male ZDF rat. The assay can be described thus: Four weeks combination treatment of overtly diabetic male ZDF rats; HbA1c and 24-hour glucose profiles. The assay is classed as in vivo. The conditions noted are these: thiazolidinedione insulin sensitizer x mg/kg oral once daily + Exendin-4(1-39) xx μg/kg s.c. twice daily. The method, then:
Synergistic effect of combining thiazolidinedione insulin sensitizer and exendin-4(1-39) on glucose and HbA1c, (glycosylated hemoglobin) in the male ZDF rat.
Male ZDF rats were used in the study. Before treatment start, measurements of glucose and HbA1c were performed. All animals were overtly diabetic at the beginning of the study. Animals were allocated into the following 4 treatment groups: • Group 1: Vehicle-1+Vehicle-2 • Group 2: thiazolidinedione insulin sensitizer, x mg/kg+Vehicle-2 (n=10) • Group 3: Vehicle-1+exendin-4(1-39), xx μg/kg • Group 4: thiazolidinedione insulin sensitizer, x mg/kg+exendin-4(1-39), xx μtg/kg
Thiazolidinedione insulin sensitizer and Vehicle-1 were administered by oral gavage once daily at approx. 07:30. Exendin-4(1-39) and Vehicle-2 were administered subcutaneously twice daily at approx. 07:30 and 14:30.
After four weeks treatment, HbA1c was measured and 24-hour glucose profiles were assessed.
The findings of group 1, 2, 3 and 4 are listed. Delta HbA1c values referring to the numerical difference between the measurement after treatment and the measurement before treatment are calculated. Glucose24 hAUc refers to the total area under the glucose concentration curve during the 24-hour period. A two-way analysis of variance are performed for each parameter and the significance of the interaction term evaluated.

In the case of Exendin-4(1-39), the “insulin release and blood glucose level” value in assay [1] is “stimulate insulin release and ensuing lowering of the blood glucose level”. In assay [2], the “effect on 24-hour glucose profiles (Glucose 24h AUC, two-way ANOVA interaction term)” value was “synergistic (greater than additive) effects” and the “effect on HbA1c (delta HbA1c, two-way ANOVA interaction term)” value is recorded as “synergistic (greater than additive) effects”.
